These results are taken from patent publication US11976083B2, “Inhibitors of peptidylarginine deiminases” (Gilead Sciences, Inc., priority 2020, dated 2024).

As usually defined, the pIC50 is the negative decadic logarithm of the IC50, by convention in mol/L.

The assay has as its target T1, human PAD4 (Homo sapiens, UniProt Q9UM07).
T1 construct: human PAD4 (NM_012387), A2-P663, was PCR amplified; His-SUMO (N, cleaved yes); made in house; host or cells: E. coli BL21(DE3)
Kind of assay: In vitro PAD4 BAEE biochemical assay. Conditions: BAEE substrate 3 mM, 5 nM PAD4, 2 mM calcium chloride; geometric mean of multiple experiments. In a few lines: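 Ammonia produced by BAEE deimination (3 mM substrate, 2 h, 25 °C) was read as fluorescent isoindole after o-phthalaldehyde/DTT derivatization, ex 405 nm/em 535 nm. Human PAD4 at 5 nM final, 2 mM calcium, pH 7.6 MOPS; compound preincubated 30 min. IC50s, normalized to BB-Cl-Amidine and DMSO controls, were geometric-mean averaged.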

pIC50: −log10 of the molar value.

T1 sequence (Q9UM07 2-663): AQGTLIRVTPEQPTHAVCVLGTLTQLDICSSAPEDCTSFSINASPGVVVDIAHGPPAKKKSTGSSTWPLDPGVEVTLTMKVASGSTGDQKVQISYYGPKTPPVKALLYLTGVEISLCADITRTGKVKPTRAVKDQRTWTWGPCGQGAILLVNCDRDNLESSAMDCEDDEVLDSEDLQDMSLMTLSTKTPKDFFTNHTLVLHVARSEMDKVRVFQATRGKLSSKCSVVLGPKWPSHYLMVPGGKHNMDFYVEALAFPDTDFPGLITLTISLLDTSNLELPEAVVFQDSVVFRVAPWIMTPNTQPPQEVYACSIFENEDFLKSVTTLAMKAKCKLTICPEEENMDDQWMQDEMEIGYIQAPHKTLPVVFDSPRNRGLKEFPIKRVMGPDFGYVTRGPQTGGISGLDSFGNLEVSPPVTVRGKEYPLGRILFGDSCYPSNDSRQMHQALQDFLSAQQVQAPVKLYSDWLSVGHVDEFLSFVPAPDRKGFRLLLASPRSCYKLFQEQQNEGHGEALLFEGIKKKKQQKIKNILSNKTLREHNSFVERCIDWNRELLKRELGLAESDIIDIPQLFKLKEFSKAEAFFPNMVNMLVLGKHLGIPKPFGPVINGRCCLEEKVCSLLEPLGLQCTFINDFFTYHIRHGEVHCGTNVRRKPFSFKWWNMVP

Consider `COc1cc(C(=O)N2CC[C@@H](OC)[C@@H](N)C2)cc2nc(-c3cc4ccc5nc4n3CCCCCc3cc4ccccc4nc3C(=O)N[C@@H]5C)n(C)c12` [Example 731, (2~{R})-21-[5-[(3~{S},4~{R})-3-amino-4-methoxy-piperidine-1-carbonyl]-7-methoxy-1-methyl-benzimidazol-2-yl]-2-methyl-3,6,20,26-tetrazapentacyclo[18.5.2.0^ {5,14}.0^{7,12}.0^{23,27}] heptacosa-1(26),5(14), 6,8,10,12,21,23(27),24-nonaen-4-one], for which the negative-log IC50 (pIC50) is 6.85.
Then `COc1cc(C(=O)N2CC[C@@H](OC)[C@@H](N)C2)cc2nc(-c3cc4ccc5nc4n3CCCCC[C@@H]3C[C@H]3C(=O)NC53CC3)n(C)c12` [Example 787, (5~{R},7~{R})-14-[5-[(3~{S}, 4~{R})-3-amino-4-methoxy-piperidine-1-carbonyl]-7-methoxy-1-methyl-benzimidazol-2-yl]spiro[3,13,19-triazatetracyclo[11.5.2.0^ {5,7}.0^{16,20}]icosa-1(18),14,16,19-tetraene-2,1′-cyclopropane]-4-one], with 7.03; and `COc1cc(C(=O)N2CC3(CCCCNC3)C2)cc2nc(-c3cc4ccc5nc4n3CC(F)(F)CCC[C@@H]3C[C@H]3C(=O)N[C@@H]5C)n(C)c12` [Example 632, (2~{R},5~{R},7~{R})-14-[5-(2,9-diazaspiro[3.6]decane-2-carbonyl)-7-methoxy-1-methyl-benzimidazol-2-yl]-11,11-difluoro-2-methyl-3,13,19-triazatetracyclo [11.5.2.0^{5,7}.0^{16,20}] icosa-1(19),14,16(20), 17-tetraen-4-one], with 7.34.
Then `COc1cc(C(=O)N2CCC[C@@H](N)C2)cc2nc(-c3cc4ccc5nc4n3C[C@H]3C[C@H]3CC[C@H]3C[C@@H]3C(=O)N[C@@H]5C)n(C)c12` (single isomer, unassigned) [Example 116, (3˜{S},5˜{R},8˜{S},10˜{S},13˜{R})-19-[5-[(3˜{R})-3-aminopiperidine-1-carbonyl]-7-methoxy-1-methyl-benzimidazol-2-yl]-13-methyl-1,12,21-triazapentacyclo[12.5.2.0^{3,5}.0^{8,10}.0^{17,20}]henicosa-14(21),15,17(20),18-tetraen-11-one], with 6.59.
On to `C[C@H]1NC(=O)[C@@H]2C[C@H]2CCCCCn2c(-c3nc4cc(C(=O)N[C@H]5CNCC[C@@H]5F)c(F)cc4n3CCOc3ccccn3)cc3ccc1nc32` [Example 434, 6-fluoro-~{N}-[(3~{S),4~{S})-4-fluoro-3-piperidyl]-2-[(2~{R},5~{R},7~{R})-2-methyl-4-oxo-3,13,19-triazatetracyclo[11.5.2.0^{5,7}.0^{16,20}]icosa-1(19),14,16(20),17-tetraen-14-yl]-1-[2-(2-pyridyloxy)ethyl]benzimidazole-5-carboxamide], for which the negative logarithm of the IC50 (pIC50) was 7.39.
The result for `C[C@H]1NC(=O)[C@@](F)(c2ccccn2)CCCCCCn2c(-c3nc4cc(C(=O)N5C[C@H](N)[C@@H]6CC[C@H]5C6)cc(F)c4n3C3CC3)cc3ccc1nc32` [Example 885, (8~{S},11~{R})-17-[5-[(1~{S},4~{R},5~{R})-4-amino-2-azabicyclo[3.2.1]octane-2-carbonyl]-1-cyclopropyl-7-fluoro-benzimidazol-2-yl]-8-fluoro-11-methyl-8-(2-pyridyl)-1,10,19-triazatricyclo[10.5.2.0^ {15,18}]nonadeca-12(19), 13,15(18),16-tetraen-9-one] reads 7.96.
Then `COc1cc(C(=O)N2C[C@H](N)[C@@H]3CC[C@H]2C3)cc2nc(-c3cc4ccc5nc4n3CCCCCc3nc(Cl)ccc3C(=O)N[C@@H]5C)n(C3CC3)c12` [Example 809, (2˜{R})-17-[5-[(1˜{S},4˜{R},5˜{R})-4-amino-2-azabicyclo[3.2.1]octane-2-carbonyl]-1-cyclopropyl-7-methoxy-benzimidazol-2-yl]-8-chloro-2-methyl-3,9,16,22-tetrazatetracyclo[14.5.2.0^{5,10}.0^{19,23}]tricosa-1(21),5(10),6,8,17,19,22-heptaen-4-one], with 7.41; and `C[C@H]1NC(=O)CCCCCCCn2c(-c3nc4cc(C(=O)N5[C@H]6CC[C@@H]5[C@H](N)C6)ccn4c3C3CC3)cc3ccc1nc32` [Example 249, (11~{R})-17-[7-[(1~{R},2~{R},4~{S})-2-amino-7-azabicyclo[2.2.1]heptane-7-carbonyl]-3-cyclopropyl-imidazo[1,2-a]pyridin-2-yl]-11-methyl-1,10,19-triazatricyclo[10.5.2.0^{15,18}]nonadeca-12(19),13,15(18),16-tetraen-9-one], with 7.29.
Then `C[C@H]1NC(=O)[C@@]2(C)C[C@@H]2CCCC(F)(F)Cn2c(-c3nc4cc(C(=O)N[C@H]5CNCC[C@@H]5F)c(F)cc4n3C)cc3ccc1nc32` [Example 549, 2-[(2~{R},5~{S},7~ {S})-11,11-difluoro-2,5-dimethyl-4-oxo-3,13,19-triazatetracyclo [11.5.2.0^{5,7).0^ {16,20}]icosa-1(19), 14,16(20),17-tetraen-14-yl]-6-fluoro-~{N}-[(3~ {S},4~{S})-4-fluoro-3-piperidyl]-1-methyl-benzimidazole-5-carboxamide], with 6.89; and `C[C@H]1NC(=O)c2ccc(Cl)nc2CCCCCn2c(-c3nc4cc(C(=O)N[C@H]5CNCC[C@@H]5F)c(F)cc4n3C3CC3)cc3ccc1nc32` [Example 751, 2-[(2~{R})-8-chloro-2-methyl-4-oxo-3,9,16,22-tetrazatetracyclo[14.5.2.0^ {5,10}.0^{19,23}]tricosa-1(22),5(10),6,8,17,19(23),20-heptaen-17-yl]-1-cyclopropyl-6-fluoro-~{N}-[(3~{S}, 4~{S})-4-fluoro-3-piperidyl]benzimidazole-5-carboxamide], with 7.49; and `COc1cc(C(=O)N2[C@H]3CC[C@@H]2[C@H](N)C3)cc2nc(-c3cc4ccc5nc4n3C[C@H]3CC[C@H]3COCCC(=O)N[C@@H]5C)c(C)n12` [Example 8, (3~{S},6~{R},13~{R})-19-[7-[(1~{R},2~{R},4~{S})-2-amino-7-azabicyclo[2.2.1]heptane-7-carbonyl]-5-methoxy-3-methyl-imidazo[1,2-a]pyridin-2-yl]-13-methyl-8-oxa-1,12,21-triazatetracyclo[12.5.2.0^{3,6}.0^{17,20}] henicosa-14(21),15,17(20),18-tetraen-11-one], with 7.15.
`C[C@H]1NC(=O)c2ccc(Cl)nc2CCCCCn2c(-c3nc4cc(C(=O)N5C[C@H](N)C[C@@H](F)C5)cc(F)c4n3C3CC3)cc3ccc1nc32` [Example 791, (2~{R})-17-[5-[(3~{R},5~{R})-3-amino-5-fluoro-piperidine-1-carbonyl]-1-cyclopropyl-7-fluoro-benzimidazol-2-yl]-8-chloro-2-methyl-3,9,16,22-tetrazatetracyclo[14.5.2.0^ {5,10}.0^{19,23}]tricosa-1(21),5(10),6,8,17,19,22-heptaen-4-one]: the pIC50 was 7.77.
The result for `C[C@H]1NC(=O)c2ccc(Cl)nc2CCCCCn2c(-c3nc4cc(C(=O)N5[C@H]6CC[C@@H]5[C@H](N)C6)cc(F)c4n3C3CC3)cc3ccc1nc32` [Example 808, (2~{R})-17-[5-[(1~{R},2~{R},4~ {S})-2-amino-7-azabicyclo [2.2.1]heptane-7-carbonyl]-1-cyclopropyl-7-fluoro-benzimidazol-2-yl]-8-chloro-2-methyl-3,9,16,22-tetrazatetracyclo[14.5.2.0^ {5,10}.0^{19,23}]tricosa-1(21),5(10),6,8,17,19,22-heptaen-4-one] reads 7.82.
The result for `C[C@@H]1[C@H](N)CCCN1C(=O)c1cc(F)c2c(c1)nc(-c1cc3ccc4nc3n1CCCCCc1nc3ccccc3cc1C(=O)N[C@@H]4C)n2C1CC1` [Example 830, (2~{R})-21-[5-[(2~{R}, 3~{R})-3-amino-2-methyl-piperidine-1-carbonyl]-1-cyclopropyl-7-fluoro-benzimidazol-2-yl]-2-methyl-3,13,20,26-tetrazapentacyclo[18.5.2.0^ {5,14}.0^{7,12}.0^ {23,27}]heptacosa-1(26),5(14),6,8,10,12,21, 23(27),24-nonaen-4-one] reads 7.72; that for “(2~{R})-17-[5-[(1~{S},4~{R}, 5~{R})-4-amino-2-azabicyclo [3.2.1]octane-2-carbonyl]- 7-(difluoromethoxy)-1-methyl- benzimidazol-2-yl]-8-chloro- 2-methyl-3,9,16,22- tetrazatetracyclo[14.5.2.0^ {5,10).0^{19,23}]tricosa- 1(22),5(10),6,8,17,19(23),20- heptaen-4-one [Example 762]”, 7.59; that for `COc1cc(C(=O)N2CC[C@@H](OC)[C@@H](N)C2)cc2nc(-c3cc4ccc5nc4n3CCCCCCC(C)(C)C(=O)NC5C(F)(F)F)n(C)c12` (stereo partly drawn) [Example 785, 17-[5-[(3~{S},4~{R})-3-amino-4-methoxy-piperidine-1-carbonyl]-7-methoxy-1-methyl-benzimidazol-2-yl]-8,8-dimethyl-11-(trifluoromethyl)-1,10,19-triazatricyclo [10.5.2.0^{15,18}]nonadeca-12,14,16,18-tetraen-9-one], 6.02.
`COc1cc(C(=O)N2CC[C@@H](OC)[C@@H](N)C2)cc2nc(-c3cc4ccc5nc4n3CCCC(F)(F)C[C@@H]3C[C@H]3C(=O)N[C@@H]5C)n(C)c12` [Example 857]: the pIC50 was 7.89.
The result for `C[C@H]1NC(=O)c2c(ncc3ccccc23)CCCCCn2c(-c3nc4cc(C(=O)N5C[C@H](N)[C@@H]6CC[C@H]5C6)cc(F)c4n3C3CC3)cc3ccc1nc32` [Example 457, (2~{R})-21-[5-[(1~{S),4~{R},5~{R})-4-amino-2-azabicyclo[3.2.1]octane-2-carbonyl]-1-cyclopropyl-7-fluoro-benzimidazol-2-yl]-2-methyl-3,13,20,26-tetrazapentacyclo[18.5.2.0^{5,14}.0^ {6,11}.0^{23,27}]heptacosa-1(26),5(14),6(11),7,9,12,21,23(27),24-nonaen-4-one] reads 7.42.
